Columns and labels:
[1] = tested on: VM precursor cultures; test: Real-time RT-PCR analysis of VM precursor cultures; type: cell-based, rat; settings: 1.25 mM SB, 3 days
[2] = tested on: VM precursor cultures; test: Real-time RT-PCR analysis of VM precursor cultures; type: cell-based, rat
Protocol: Briefly, ventral mesencephalic tissues were dissected from E14.5 Sprague-Dawley (SD) rats, and then dissociated enzymatically (0.1% trypsin) and mechanically. Cells were seeded into 24-well (1×10^5/cm^2) culture plates pre-coated with 20 μg/mL poly-D-lysine (Sigma-Aldrich), and were maintained in 0.5 mL/well of minimum essential medium (MEM) supplemented with 10% fetal bovine serum (FBS), 10% horse serum (HS), 1 g/L glucose, 2 mM L-glutamine, 1 mM sodium pyruvate, 100 μM nonessential amino acids, 100 U/mL penicillin, and 100 μg/mL streptomycin (all purchased from Invitrogen). Cultures were maintained at 37° C. in a humidified atmosphere of 5% CO2 and 95% air. For DA neuron differentiation, VM precursor cultures, four hours after seeding, were switched to Dulbecco's Modified Eagle's Medium (DMEM)/Ham's F12 (1:1) containing N2 supplement (Invitrogen, Carlsbad, Calif.), penicillin and streptomycin. Immediately following the switch to DMEM/F12 medium, VM precursor cells were treated with various concentration of rat UCN (from Sigma-Aldrich, St. Louis, Mo.) for the indicated periods. For neutralization of endogenous UCN bioactivity, anti-UCN antibody (15 μg/mL) (Santa Cruz Biotechnology, Santa Cruz, Calif.) was added to the VM precursor cultures.
Total RNA was extracted from VM tissues or cultured VM precursors with TRIzol® reagent (Invitrogen). One-step real-time RT-PCR analysis was performed to determine the expression of genes (Power SYBR® Green RNA-to-CT™ 1-step kit, Applied Biosystems, Foster City, Calif.). Threshold cycle (CO value for each test gene was normalized to the Ct value for the β-actin control from the same RNA preparations. The ratio of transcription of each gene was calculated as 2^−(ΔCt), where ΔCt is the difference Cr (test gene)−Ct (β-actin). The primers used herein are listed in Table 1.

[3] = tested on: human DA neuroblastoma SH-SY5Y cells; test: Western blot of TH protein in SH-SY5Y cells; type: cell-based; settings: UCN vs control medium
Protocol: Human DA neuroblastoma SH-SY5Y cells were grown in Minimal Essential Medium (MEM)/F12 medium containing 10% FBS, 2 mM L-glutamine, 100 μM nonessential amino acids, 100 U/mL penicillin, and 100 μg/mL streptomycin. Cells were incubated at 37° C. under saturating humidity in 5% CO2/95% air.
For Western blot analysis, VM precursor cells were lysed in M-PER® Mammalian Protein Extraction Reagent (Pierce). Protein concentration was determined by Bradford assay (Bio-Rad, Hercules, Calif.). 30˜50 μg of protein sample was separated on 10˜12% sodium dodecyl sulphate-polyacrylamide gel (SDS-PAGE) and transferred to immobilon polyvinylidene difluoride (PVDF) membranes (Merck Millipore). The membranes were incubated in Tris-buffered saline (TBST, 0.1 M Tris/HCl, pH 7.4, 0.9% NaCl, 0.1% Tween 20) supplemented with 5% non-fat dry milk for 1 h to block nonspecific binding. […] The antigen-antibody complex was detected by using an ECL chemi-luminescence detection system (PerkinElmer, Boston, Mass.). The intensity of the bands was quantified with a GS-800 calibrated densitometer (Bio-Rad), and calculated as the optical density X area of bands.

[4] = tested on: Nurr1-transduced cortical NPCs; test: DA uptake assay in Nurr1-transduced cortical NPCs; type: cell-based, rat; settings: 0.5 μM UCN, 4 days
Protocol: For lenti-viral transduction, E13 cortical NPCs were incubated with lenti-viruses (25 multiplicity of infection) expressing Nurr1 or GFP containing poly-brene (hexadimethrine bromide, 1 μg/mL, Sigma-Aldrich) for 24 hours. After 1 day of further cell expansion in the presence of the mitogens, cells were induced to differentiate.
For DA uptake assay, cells were washed twice with warm Krebs-Ringer buffer (16 mM sodium phosphate, 119 mM NaCl, 4.7 mM KCl, 1.8 mM CaCl2, 1.2 mM MgSO4, 1.3 mM EDTA and 5.6 mM glucose, pH 7.4), and then incubated with 1 μM [^3H]-dopamine(DA)(60 Ci/mmol, PerkinElmer) in Krebs-Ringer buffer at 37° C. for 20 min. After washing with ice-cold Krebs-Ringer buffer, cells were collected in 1 N NaOH and radioactivity was counted with a liquid scintillation counter. Non-specific uptake was determined in parallel wells that received both the tritiated tracer and 10 μM mazindol. The specific [^3H] DA were calculated by subtracting the amount of radioactivity obtained in the presence of mazindol from that obtained in the absence of mazindol.

[5] = tested on: Nurr1 complexes in VM precursor cells; test: Immuno-precipitation with anti-Nurr1 antibody in VM precursor cells; type: cell-based, rat; settings: UCN, 24 hours
Protocol: For immuno-precipitation, VM precursor cells were treated with UCN for 24 hours and then harvested with M-PER® Mammalian Protein Extraction Reagent (Pierce, Rockford, Ill.) containing 1 mM PMSF, 10 μg/mL aprotinin, 10 μg/mL leupeptin, and 5 μg/mL pepstatin A. The cytosolic lysates (250 μg of protein) were incubated with a rabbit anti-Nurr1 antibody (Santa Cruz Biotechnology) with gentle rocking overnight at 4° C. PureProteome™ protein G magnetic beads (Merck Millipore, Billerica, Mass.) were added (15 μL of suspension) and rotated for 3 h at 4° C. After washing the beads with ice-cold immuno-precipitation buffer (20 mM Tris, pH 7.5, 150 mM NaCl, 1 mM EDTA, 1 mM EGTA, 1% Triton X-100, 2.5 mM sodium pyrophosphate, 1 mM β-glycerolphosphate, 1 mM Na3VO4, 1 μg/mL leupeptin, 1 mM PMSF), immuno-precipitated proteins were eluted in sample buffer, and subjected to Western blot analyses with anti-MeCP2, -CoREST, -HDAC1, -Nurr1, -Foxa2, or -Pitx3 antibodies.

| Compound | TH mRNA expression [1] | L-aromatic amino acid decarboxylase (AADC) mRNA ([2]; 1 μM UCN, 4 days) | dopamine transporter (DAT) mRNA ([2]; 1 μM UCN, 4 days) | Foxa2 mRNA expression ([2]; UCN) | Nurr1 mRNA expression ([2]; UCN) | Pitx3 mRNA expression ([2]; UCN) | TH mRNA expression ([2]; UCN vs control medium) | mRNA expression specific for GABAergic neurons (GAD67) ([2]; UCN vs control medium) | mRNA expression specific for glutamatergic neurons (VGULT1) ([2]; UCN vs control medium) | mRNA expression specific for serotonergic neurons (SERT) ([2]; UCN vs control medium) | TH protein levels [3] | DA neuronal function as assessed by DA uptake [4] | amount of Foxa2 that precipitates with Nurr1 [5] | interaction between Pitx3 and Nurr1 proteins [5] |
| --- | --- | --- | --- | --- | --- | --- | --- | --- | --- | --- | --- | --- | --- | --- |
| CCCC(=O)[O-].[Na+] [SB, sodium butyrate, reference compound] | markedly upregulated |  |  |  |  |  |  |  |  |  |  |  |  |  |
| Urocortin [UCN] |  | trends were found for increased | trends were found for increased | upregulated | upregulated | upregulated | significantly elevated | no effect | no effect | no effect | induced the increases | increased DA neuronal function | markedly enhanced | not significantly altered |

Source: patent US20160355782A1, “METHOD FOR ENHANCING DIFFERENTIATION OF DOPAMINERGIC NEURONS” (Buddhist Tzu Chi Medical Foundation, priority 2015, published 2016)
